In patent US20080234327A1, “DIHYDROINDAZOLE COMPOUNDS USEFUL IN TREATING IRON DISORDERS” (XENON PHARMACEUTICALS INC., priority 2007, published 2008):

Key:
DMT1 = biological target: T1, DMT1 (Homo sapiens, UniProt P49281); experiment: DMT1 activity assay (in vitro); format: cell-based; settings: inhibition of DMT1; read-out: IC50 Activity Level
T1 sequence (P49281 1-568): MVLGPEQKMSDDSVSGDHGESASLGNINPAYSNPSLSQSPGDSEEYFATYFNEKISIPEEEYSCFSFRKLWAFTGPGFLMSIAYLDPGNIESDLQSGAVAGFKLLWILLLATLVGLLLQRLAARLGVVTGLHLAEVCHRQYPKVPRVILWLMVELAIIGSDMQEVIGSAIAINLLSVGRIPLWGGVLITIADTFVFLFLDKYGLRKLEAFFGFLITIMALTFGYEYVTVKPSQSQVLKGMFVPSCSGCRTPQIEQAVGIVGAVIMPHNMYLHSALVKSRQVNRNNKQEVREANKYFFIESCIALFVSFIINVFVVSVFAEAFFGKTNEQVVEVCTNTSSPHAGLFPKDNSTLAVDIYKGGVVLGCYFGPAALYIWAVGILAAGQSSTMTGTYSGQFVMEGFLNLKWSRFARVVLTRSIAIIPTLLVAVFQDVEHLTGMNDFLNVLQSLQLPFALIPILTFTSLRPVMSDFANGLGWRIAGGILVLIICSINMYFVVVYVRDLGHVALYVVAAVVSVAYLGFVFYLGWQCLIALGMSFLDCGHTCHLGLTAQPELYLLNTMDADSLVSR
Description: One such protocol involves the screening of chemical agents for ability to modulate the activity of DMT1 thereby identifying it as a modulating agent. The in vitro activity of DMT1 can be measured in cell based assays by either directly measuring iron flux (using a radioactively labelled iron ^55Fe) or by measuring the fluorescence of a cell permeable iron fluorophore such as calcein. Stable cell lines overexpressing DMT1 are exposed to ^55Fe or loaded with calcein and then compound is applied. […] Alternatively, in another format electrophysiological techniques can be used to measure the current or iron or other metals traversing the cell membrane with DMT1 in a Xenopus oocyte or other cell based system (Gunshin et al., Nature, 1997, 31; 388(6641):482-8).
This example discloses various in vitro assay for testing and profiling test agents against DMT1 stably expressed in cells of either an endogenous or recombinant origin. These assays can use stable cell lines overexpressing DMT1 or intestinal cells and intestinal tissue expressing endogenous DMT1. DMT1 function could also be assessed in other cell types that express DMT1. Of greatest relevance would be the erythrocytes (e.g. K562 cells) or hepatocytes (e.g. […]).
DMT1 function can be assessed in a number of ways, including monitoring fluorescence changes of an iron fluorophore (e.g. calcein), monitoring uptake of radiolabelled iron (^55Fe or ^59Fe) (Picard et al., J. Biol. Chem., 2000, 275(46):35738-45 and Wetli et al., Chem. Biol. 2006 September; 13(9):965-72), or by assessing the current or transport of iron and other metals into the cells or tissues using standard electrophysiological techniques (Gunshin et al., Nature, 1997, 388(6641):482-8.).
Variations of these assays involve alterations of incubation times, the iron status of the cells and tissues (which may be modulated by chemical chelators or by harvesting from iron deficient animals), the metal cation detected and the pH of the reaction can generally be made by conventional techniques known to those skilled in the art.

Structure (SMILES)	melting point [°C]	IC50 (DMT1) [µM]
Oc1c2c(nn1-c1ccccn1)CCc1ccccc1-2 [Example 1, 2-pyridin-2-yl-4,5-dihydro-2H-benzo[e]indazol-1-ol]	145 to 146	
Oc1c2c(nn1-c1ccccn1)CCc1cc(Br)ccc1-2 [Example 1.1, 7-bromo-2-pyridin-2-yl-4,5-dihydro-2H-benzo[e]indazol-1-ol]	164 to 165	
COc1ccc2c(c1)CCc1nn(-c3ccccn3)c(O)c1-2 [Example 1.2, 7-methoxy-2-pyridin-2-yl-4,5-dihydro-2H-benzo[e]indazol-1-ol]	139 to 140	
COc1ccc2c(c1)-c1c(nn(-c3ccccn3)c1O)CC2 [Example 1.3, 8-methoxy-2-pyridin-2-yl-4,5-dihydro-2H-benzo[e]indazol-1-ol]	116 to 117	≥ 1
N#Cc1ccc2c(c1)CCc1nn(-c3ccccn3)c(O)c1-2 [Example 1.4, 1-hydroxy-2-pyridin-2-yl-4,5-dihydro-2H-benzo[e]indazole-7-carbonitrile]	232 to 233	
Cc1ccc(-c2ccc3c(c2)CCc2nn(-c4ccccn4)c(O)c2-3)cc1 [Example 1.6, 2-pyridin-2-yl-7-p-tolyl-4,5-dihydro-2H-benzo[e]indazol-1-ol]	177 to 178	
COc1ccc(-c2ccc3c(c2)CCc2nn(-c4ccccn4)c(O)c2-3)cc1 [Example 1.7, 7-(4-methoxyphenyl)-2-pyridin-2-yl-4,5-dihydro-2H-benzo[e]indazol-1-ol]	159 to 160	
Oc1c2c(nn1-c1ccccn1)CCc1cc(-c3ccc4c(c3)OCO4)ccc1-2 [Example 1.8, 7-benzo[1,3]dioxol-5-yl-2-pyridin-2-yl-4,5-dihydro-2H-benzo[e]indazol-1-ol]	205 to 206	0.1 to 1
N#Cc1ccc(-c2ccc3c(c2)CCc2nn(-c4ccccn4)c(O)c2-3)cc1 [Example 1.9, 4-(1-hydroxy-2-pyridin-2-yl-4,5-dihydro-2H-benzo[e]indazol-7-yl)-benzonitrile]	274 to 275	≥ 1
Oc1c2c(nn1-c1ccc(C(F)(F)F)cn1)CCc1ccccc1-2 [Example 1.10, 2-(5-(trifluoromethyl)pyridin-2-yl)-4,5-dihydro-2H-benzo[e]indazol-1-ol]	158 to 159	≥ 1
Oc1c2c(nn1-c1cc(C(F)(F)F)ccn1)CCc1ccccc1-2 [Example 1.11, 2-(4-(trifluoromethyl)pyridin-2-yl)-4,5-dihydro-2H-benzo[e]indazol-1-ol]	161 to 162	0.1 to 1
Oc1c2c(nn1-c1ncccc1C(F)(F)F)CCc1ccccc1-2 [Example 1.12, 2-(3-(trifluoromethyl)pyridin-2-yl)-4,5-dihydro-2H-benzo[e]indazol-1-ol]	174 to 175	≥ 1
O=[N+]([O-])c1ccc(-n2nc3c(c2O)-c2ccccc2CC3)nc1 [Example 1.13, 2-(5-nitropyridin-2-yl)-4,5-dihydro-2H-benzo[e]indazol-1-ol]	226 to 227	0.1 to 1
Cc1ccc(-n2nc3c(c2O)-c2ccccc2CC3)nc1 [Example 2, 2-(5-methylpyridin-2-yl)-4,5-dihydro-2H-benzo[e]indazol-1-ol]	156 to 157	0.1 to 1

Results, then the molecule that gave them:

melting point [°C]	IC50 (DMT1) [µM]	Structure (SMILES)
155 to 156		[O-][n+]1ccccc1-n1nc2c(c1O)-c1ccccc1CC2 [Example 3, 2-(1-hydroxy-4,5-dihydro-2H-benzo[e]indazol-2-yl)pyridine 1-oxide]
234 to 235		Oc1c2c(nn1-c1nc3ccccc3s1)CCc1ccccc1-2 [Example 4, 2-(benzo[d]thiazol-2-yl)-4,5-dihydro-2H-benzo[e]indazol-1-ol]
182 to 183	0.1 to 1	COc1ccc2c(c1)CCc1nn(-c3nc4ccccc4s3)c(O)c1-2 [Example 4.1, 2-(benzo[d]thiazol-2-yl)-7-methoxy-4,5-dihydro-2H-benzo[e]indazol-1-ol]
204 to 205		COc1ccc2nc(-n3nc4c(c3O)-c3ccccc3CC4)sc2c1 [Example 4.2, 2-(6-methoxybenzo[d]thiazol-2-yl)-4,5-dihydro-2H-benzo[e]indazol-1-ol]
246 to 247		Oc1c2c(nn1-c1nc3ccc(F)cc3s1)CCc1ccccc1-2 [Example 4.3, 2-(6-fluorobenzo[d]thiazol-2-yl)-4,5-dihydro-2H-benzo[e]indazol-1-ol]
218 to 219		Cc1ccc2nc(-n3nc4c(c3O)-c3ccccc3CC4)sc2c1 [Example 4.4, 2-(6-methylbenzo[d]thiazol-2-yl)-4,5-dihydro-2H-benzo[e]indazol-1-ol]
224 to 225		Cc1cccc2sc(-n3nc4c(c3O)-c3ccccc3CC4)nc12 [Example 4.5, 2-(4-methylbenzo[d]thiazol-2-yl)-4,5-dihydro-2H-benzo[e]indazol-1-ol]
> 280		O=C(O)c1ccc2nc(-n3nc4c(c3O)-c3ccccc3CC4)sc2c1 [Example 4.6, 2-(1-hydroxy-4,5-dihydro-2H-benzo[e]indazol-2-yl)benzo[d]thiazole-6-carboxylic acid]
> 250	≥ 1	CC(C)(C)c1csc(-n2nc3c(c2O)-c2ccccc2CC3)n1.Cl [Example 5, 2-(4-tert-butylthiazol-2-yl)-4,5-dihydro-2H-benzo[e]indazol-1-ol hydrochloride]
205 to 206		Oc1c2c(nn1-c1nc3ccccc3[nH]1)CCc1ccccc1-2 [Example 6, 2-(1H-benzo[d]imidazol-2-yl)-4,5-dihydro-2H-benzo[e]indazol-1-ol]
80 to 81	0.1 to 1	Oc1c2c(nn1-c1ccccn1)CCCc1ccccc1-2 [Example 7, 2-pyridin-2-yl-2,4,5,6-tetrahydro-2,3-diaza-benzo[e]azulen-1-ol]
